{"source": "patent US6323204A", "about": "“Methods for using (2-imidazolin-2-ylamino) quinoxaline derivatives” (Allergan, priority 1998, dated 2001)", "key": {"[1]": {"experiment": "rat activity test (central nervous system anesthetization activity)", "format": "in vivo", "conditions": "iv, read-out: ID50 Rat Activity", "procedure": "(§1) Two (2) animal models were utilized to determine the central nervous system anesthetization activity of the quinoxaline derivative produced in Example 2.\n(§2) The first of these animal models is identified generally as the mouse hexobarbital sleep time test. Briefly, the compound in question (in a dosage range of between 10 and 500 micrograms/kg, i.v.) and the barbiturate hexobarbital (75 mg/kg, i.p) are coadministered to mice weighing 20 to 22 grams. […] Sleep time is assessed as the time associated with the loss of the animal's reflex to right itself when placed on its back. The ED15 is estimated from dose-response data as the effective dose which potentiates sleep time by 15 minutes. The second animal model used is identified generally as the rat activity test. Briefly, rats weighing 140 to 160 grams are placed into an environmentally isolated activity monitor five (5) minutes following administration of the compound in question (in the range of 1 to 1000 micrograms/kg, i.v.). Horizontal activity, measured in counts is determined for five (5) minutes.\n(§3) The final quinoxaline derivative produced in Example 2 was tested using both of the above-noted animal models. For comparison purposes, clonidine and its hydrophilic analog, p-amino-clonidine, were also tested using these animal models."}, "[2]": {"experiment": "mouse hexobarbital sleep time test (central nervous system anesthetization activity)", "format": "in vivo", "conditions": "i.v., with hexobarbital 75 mg/kg i.p., dose which potentiates sleep time by 15 minutes", "procedure": "as §1, §2, §3"}, "[3]": {"conditions": "in words; stated as known; cited from earlier work"}, "[4]": {"conditions": "in words", "procedure": "The final quinoxaline derivative produced in Example 2, that is 5-bromo-6-(2-imidazolin-2-ylamino)quinoxaline, was tested for central nervous system anesthetization activity as follows.\nas §1, §2\nThe final quinoxaline derivative produced in Example 2 was tested using both of the above-noted animal models. […]"}}, "note": "Like-named read-outs stand apart in the source and are kept apart here.", "data": [{"compound": "Clc1cccc(Cl)c1N=C1NCCN1", "note": "[Clonidine]", "values": [{"measurement": "ED50", "setting": "[1]; Rattus norvegicus", "value": 0.026, "unit": "mg/kg"}, {"measurement": "ED15 Mouse Sleep-Time", "setting": "[2]", "value": 0.075, "unit": "mg/kg"}, {"measurement": "anesthetization activity (known)", "setting": "[3]", "value": "significant anesthetization activity"}]}, {"compound": "Brc1c(NC2=NCCN2)ccc2nccnc12", "note": "[Example 2, 5-bromo-6-(2-imidazolin-2-ylamino) quinoxaline]", "values": [{"measurement": "central nervous system anesthetization activity compared with the hydrophilic analog of clonidine (p-amino clonidine)", "setting": "[4]", "value": "substantially more of such activity"}, {"measurement": "central nervous system anesthetization activity", "setting": "[4]; mouse sleep time and rat activity tests", "value": "substantial central nervous system anesthetization activity"}, {"measurement": "ED50", "setting": "[1]; Rattus norvegicus", "value": 0.077, "unit": "mg/kg"}, {"measurement": "ED15 Mouse Sleep-Time", "setting": "[2]", "value": 0.116, "unit": "mg/kg"}]}, {"compound": "Nc1cc(Cl)c(NC2=NCCN2)c(Cl)c1", "note": "[p-Amino Clonidine]", "values": [{"measurement": "ED50", "setting": "[1]; rat, i.v., dose which decreases horizontal activity by 50%", "value": 0.302, "unit": "mg/kg"}, {"measurement": "ED15 Mouse Sleep-Time", "setting": "[2]", "value": "> 0.5", "unit": "mg/kg"}]}]}
